According to US4278681A, “Antibacterial amide compounds and means for using the same” (Warner-Lambert Co., priority 1980, dated 1981):
Values after ≈ are worked out from the molar mass of the structure shown.

Tests used:
Test in all cases: Minimal Inhibitory Concentration by Microtitration, dilution in TSB
Assay type in all cases: cell-based
[1] = tested on: Enterobacter cloacae IMM-11; conditions: IMM11, TSB (Trypticase soy broth)
Source text: (§1) Minimal Inhibitory Concentration by Microtitration (μg/ml)
(§2) Dilution in TSB (Trypticase soy broth).

[2] = tested on: Klebsiella pneumoniae MGH-2; conditions: MGH2, TSB (Trypticase soy broth)
Source text: as §1, §2

[3] = tested on: Pseudomonas aeruginosa BRK 12-4-4; conditions: BRK1244, TSB (Trypticase soy broth)
Source text: as §1, §2

[4] = tested on: Pseudomonas aeruginosa UI-18; conditions: UI18, TSB (Trypticase soy broth)
Source text: as §1, §2

[5] = tested on: Serratia marcescens IMM-16; conditions: IMM16, TSB (Trypticase soy broth)
Source text: as §1, §2

Row | MIC [1] [µg/mL] | MIC [2] [µg/mL] | MIC [3] [µg/mL] | MIC [4] [µg/mL] | MIC [5] [µg/mL] | SMILES
1 | 1.6 (≈ 2.32 µM) | 3.1 (≈ 4.49 µM) | 1.6 (≈ 2.32 µM) | 0.8 (≈ 1.16 µM) | 3.1 (≈ 4.49 µM) | CC(=O)N[C@@H](C)C(=O)Nc1ccc(-c2ccc(C(=O)N[C@@H](C(=O)N[C@@H]3C(=O)N4[C@@H]3SC(C)(C)[C@@H]4C(=O)O)c3ccc(O)cc3)c(=O)[nH]2)cc1
2 | 6.3 (≈ 8.94 µM) | 3.1 (≈ 4.4 µM) | 3.1 (≈ 4.4 µM) | 1.6 (≈ 2.27 µM) | 3.1 (≈ 4.4 µM) | CC(=O)NCCCC(=O)Nc1ccc(-c2ccc(C(=O)N[C@@H](C(=O)N[C@@H]3C(=O)N4[C@@H]3SC(C)(C)[C@@H]4C(=O)O)c3ccc(O)cc3)c(=O)[nH]2)cc1
3 | 6.3 (≈ 8.79 µM) | 12.5 (≈ 17.4 µM) | 1.6 (≈ 2.23 µM) | 1.6 (≈ 2.23 µM) | 6.3 (≈ 8.79 µM) | CC(=O)N1CCC[C@H]1C(=O)Nc1ccc(-c2ccc(C(=O)N[C@@H](C(=O)N[C@@H]3C(=O)N4[C@@H]3SC(C)(C)[C@@H]4C(=O)O)c3ccc(O)cc3)c(=O)[nH]2)cc1
4 | 3.1 (≈ 4.15 µM) | 12.5 (≈ 16.7 µM) | 3.1 (≈ 4.15 µM) | 1.6 (≈ 2.14 µM) | 3.1 (≈ 4.15 µM) | CC(=O)N[C@@H](CCC(N)=O)C(=O)Nc1ccc(-c2ccc(C(=O)N[C@@H](C(=O)N[C@@H]3C(=O)N4[C@@H]3SC(C)(C)[C@@H]4C(=O)O)c3ccc(O)cc3)c(=O)[nH]2)cc1
5 | 3.1 (≈ 4.23 µM) | 12.5 (≈ 17.1 µM) | 3.1 (≈ 4.23 µM) | 1.6 (≈ 2.18 µM) | 6.3 (≈ 8.6 µM) | CC(=O)N1CC(O)C[C@H]1C(=O)Nc1ccc(-c2ccc(C(=O)N[C@@H](C(=O)N[C@@H]3C(=O)N4[C@@H]3SC(C)(C)[C@@H]4C(=O)O)c3ccc(O)cc3)c(=O)[nH]2)cc1 (some centres unmarked)
6 | 3.1 (≈ 4.58 µM) | 6.3 (≈ 9.31 µM) | 1.6 (≈ 2.36 µM) | 1.6 (≈ 2.36 µM) | 3.1 (≈ 4.58 µM) | C[C@H](NC=O)C(=O)Nc1ccc(-c2ccc(C(=O)N[C@@H](C(=O)N[C@@H]3C(=O)N4[C@@H]3SC(C)(C)[C@@H]4C(=O)O)c3ccc(O)cc3)c(=O)[nH]2)cc1
7 | 12.5 (≈ 16.4 µM) | 25 (≈ 32.8 µM) | 6.3 (≈ 8.27 µM) | 3.1 (≈ 4.07 µM) | 6.3 (≈ 8.27 µM) | CC(=O)N[C@@H](C)C(=O)N[C@@H](C)C(=O)Nc1ccc(-c2ccc(C(=O)N[C@@H](C(=O)N[C@@H]3C(=O)N4[C@@H]3SC(C)(C)[C@@H]4C(=O)O)c3ccc(O)cc3)c(=O)[nH]2)cc1
8 | 1.6 (≈ 2.32 µM) | 6.3 (≈ 9.15 µM) | 1.6 (≈ 2.32 µM) | 3.1 (≈ 4.5 µM) | 3.1 (≈ 4.5 µM) | CC1(C)S[C@@H]2[C@H](NC(=O)[C@H](NC(=O)c3ccc(-c4ccc(NC(=O)[C@@H]5CCC(=O)N5)cc4)[nH]c3=O)c3ccc(O)cc3)C(=O)N2[C@H]1C(=O)O
9 | 6.3 (≈ 9.11 µM) | 6.3 (≈ 9.11 µM) | 1.6 (≈ 2.31 µM) | 1.6 (≈ 2.31 µM) | 3.1 (≈ 4.48 µM) | C[C@H](NC(N)=O)C(=O)Nc1ccc(-c2ccc(C(=O)N[C@@H](C(=O)N[C@@H]3C(=O)N4[C@@H]3SC(C)(C)[C@@H]4C(=O)O)c3ccc(O)cc3)c(=O)[nH]2)cc1
10 | 6.3 (≈ 8.13 µM) | 12.5 (≈ 16.1 µM) | 1.6 (≈ 2.07 µM) | 1.6 (≈ 2.07 µM) | 6.3 (≈ 8.13 µM) | CC(=O)OC1C[C@@H](C(=O)Nc2ccc(-c3ccc(C(=O)N[C@@H](C(=O)N[C@@H]4C(=O)N5[C@@H]4SC(C)(C)[C@@H]5C(=O)O)c4ccc(O)cc4)c(=O)[nH]3)cc2)N(C(C)=O)C1 (some centres unmarked)
11 | 12.5 (≈ 17.1 µM) | 25 (≈ 34.2 µM) | 6.3 (≈ 8.62 µM) | 3.1 (≈ 4.24 µM) | 12.5 (≈ 17.1 µM) | CC(=O)N1CC(=O)C[C@H]1C(=O)Nc1ccc(-c2ccc(C(=O)N[C@@H](C(=O)N[C@@H]3C(=O)N4[C@@H]3SC(C)(C)[C@@H]4C(=O)O)c3ccc(O)cc3)c(=O)[nH]2)cc1
12 | 12.5 (≈ 16.1 µM) | 25 (≈ 32.3 µM) | 6.3 (≈ 8.13 µM) | 3.1 (≈ 4 µM) | 12.5 (≈ 16.1 µM) | CC(=O)O[C@@H]1C[C@H](C(=O)Nc2ccc(-c3ccc(C(=O)N[C@@H](C(=O)N[C@@H]4C(=O)N5[C@@H]4SC(C)(C)[C@@H]5C(=O)O)c4ccc(O)cc4)c(=O)[nH]3)cc2)N(C(C)=O)C1
13 | 12.5 (≈ 16.7 µM) | 25 (≈ 33.5 µM) | 6.3 (≈ 8.44 µM) | 3.1 (≈ 4.15 µM) | 12.5 (≈ 16.7 µM) | COC1C[C@@H](C(=O)Nc2ccc(-c3ccc(C(=O)N[C@@H](C(=O)N[C@@H]4C(=O)N5[C@@H]4SC(C)(C)[C@@H]5C(=O)O)c4ccc(O)cc4)c(=O)[nH]3)cc2)N(C(C)=O)C1 (some centres unmarked)
14 | 6.3 (≈ 8.81 µM) | 12.5 (≈ 17.5 µM) | 3.1 (≈ 4.34 µM) | 3.1 (≈ 4.34 µM) | 12.5 (≈ 17.5 µM) | CC(=O)N1CC=CC1C(=O)Nc1ccc(-c2ccc(C(=O)N[C@@H](C(=O)N[C@@H]3C(=O)N4[C@@H]3SC(C)(C)[C@@H]4C(=O)O)c3ccc(O)cc3)c(=O)[nH]2)cc1 (some centres unmarked)
15 | 1.6 (≈ 2.1 µM) | 6.3 (≈ 8.28 µM) | 0.8 (≈ 1.05 µM) | 0.8 (≈ 1.05 µM) | 6.3 (≈ 8.28 µM) | CC(=O)N1CC(OC=O)C[C@H]1C(=O)Nc1ccc(-c2ccc(C(=O)N[C@@H](C(=O)N[C@@H]3C(=O)N4[C@@H]3SC(C)(C)[C@@H]4C(=O)O)c3ccc(O)cc3)c(=O)[nH]2)cc1 (some centres unmarked)
16 | 6.3 (≈ 7.99 µM) | 12.5 (≈ 15.8 µM) | 3.1 (≈ 3.93 µM) | 1.6 (≈ 2.03 µM) | 6.3 (≈ 7.99 µM) | CCC(=O)OC1C[C@@H](C(=O)Nc2ccc(-c3ccc(C(=O)N[C@@H](C(=O)N[C@@H]4C(=O)N5[C@@H]4SC(C)(C)[C@@H]5C(=O)O)c4ccc(O)cc4)c(=O)[nH]3)cc2)N(C(C)=O)C1 (some centres unmarked)
17 | 3.1 (≈ 4.41 µM) | 6.3 (≈ 8.96 µM) | 1.6 (≈ 2.28 µM) | 0.8 (≈ 1.14 µM) | 6.3 (≈ 8.96 µM) | CN1C(=O)CC[C@H]1C(=O)Nc1ccc(-c2ccc(C(=O)N[C@@H](C(=O)N[C@@H]3C(=O)N4[C@@H]3SC(C)(C)[C@@H]4C(=O)O)c3ccc(O)cc3)c(=O)[nH]2)cc1
18 | 12.5 (≈ 15.8 µM) | 25 (≈ 31.7 µM) | 6.3 (≈ 7.98 µM) | 6.3 (≈ 7.98 µM) | 50 (≈ 63.3 µM) | CC(=O)NCCCC[C@H](NC(C)=O)C(=O)Nc1ccc(-c2ccc(C(=O)N[C@@H](C(=O)N[C@@H]3C(=O)N4[C@@H]3SC(C)(C)[C@@H]4C(=O)O)c3ccc(O)cc3)c(=O)[nH]2)cc1
19 | 3.1 (≈ 4.41 µM) | 6.3 (≈ 8.96 µM) | 3.1 (≈ 4.41 µM) | 3.1 (≈ 4.41 µM) | 6.3 (≈ 8.96 µM) | CC1(C)S[C@@H]2[C@H](NC(=O)[C@H](NC(=O)c3ccc(-c4ccc(NC(=O)CN5CCCC5=O)cc4)[nH]c3=O)c3ccc(O)cc3)C(=O)N2[C@H]1C(=O)O
